Values quoted from earlier work, collected in patent publication US20130309333A1, “METHOD AND COMPOSITION FOR TREATING FELINE SKIN DISORDERS” (priority 2011, published 2013).

Tested on: cats
Conditions: general knowledge

Nc1cc(N2CCCCC2)nc(N)[n+]1[O-] [minoxidil]
toxicity to cats: highly toxic to cats
